Experimental findings from article PMC5761851, “Application of a phenotypic drug discovery strategy to identify biological and chemical starting points for inhibition of TSLP production in lung epithelial cells” (PLoS ONE, 2018) are described below.

Experiment in all cases: kinase selectivity panel
What all share (assay type): biochemical

The target of assay [1] is T1, PKG1α (Homo sapiens, UniProt Q13976).
T1 construct: purchased Eurofins Pharma Discovery Services (KinaseProfiler; Cerep BioPrint panel)
T1 sequence (Q13976 1-671): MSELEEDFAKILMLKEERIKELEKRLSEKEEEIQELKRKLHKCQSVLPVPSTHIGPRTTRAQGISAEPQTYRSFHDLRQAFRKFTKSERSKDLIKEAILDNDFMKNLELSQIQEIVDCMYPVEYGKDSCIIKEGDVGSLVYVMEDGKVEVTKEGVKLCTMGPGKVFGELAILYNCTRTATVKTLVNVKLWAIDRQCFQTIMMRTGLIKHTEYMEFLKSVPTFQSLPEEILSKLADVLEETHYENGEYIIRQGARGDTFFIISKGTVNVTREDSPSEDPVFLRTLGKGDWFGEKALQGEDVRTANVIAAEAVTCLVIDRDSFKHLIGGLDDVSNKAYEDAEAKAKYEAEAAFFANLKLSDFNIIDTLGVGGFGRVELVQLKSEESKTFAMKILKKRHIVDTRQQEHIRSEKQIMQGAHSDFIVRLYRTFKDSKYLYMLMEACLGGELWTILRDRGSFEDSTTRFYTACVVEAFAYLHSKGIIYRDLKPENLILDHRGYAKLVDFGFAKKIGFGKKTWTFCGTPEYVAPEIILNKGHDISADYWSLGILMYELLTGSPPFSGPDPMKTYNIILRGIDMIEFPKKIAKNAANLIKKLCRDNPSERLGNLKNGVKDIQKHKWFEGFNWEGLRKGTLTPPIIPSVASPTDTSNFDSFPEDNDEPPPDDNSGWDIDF
To be noted: read-out: percentage of control activity (POC), PKG1α. The gist of the method: (§1)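 Single-point screen: 10 μM, duplicate, 125-kinase panel; follow-up IC50 from 9-point titration in duplicate for chosen hits.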

For assay [2], the target named is T2, JAK3 (Homo sapiens, UniProt P52333).
T2 construct: purchased Eurofins Pharma Discovery Services (KinaseProfiler; Cerep BioPrint panel)
T2 sequence (P52333 1-1124): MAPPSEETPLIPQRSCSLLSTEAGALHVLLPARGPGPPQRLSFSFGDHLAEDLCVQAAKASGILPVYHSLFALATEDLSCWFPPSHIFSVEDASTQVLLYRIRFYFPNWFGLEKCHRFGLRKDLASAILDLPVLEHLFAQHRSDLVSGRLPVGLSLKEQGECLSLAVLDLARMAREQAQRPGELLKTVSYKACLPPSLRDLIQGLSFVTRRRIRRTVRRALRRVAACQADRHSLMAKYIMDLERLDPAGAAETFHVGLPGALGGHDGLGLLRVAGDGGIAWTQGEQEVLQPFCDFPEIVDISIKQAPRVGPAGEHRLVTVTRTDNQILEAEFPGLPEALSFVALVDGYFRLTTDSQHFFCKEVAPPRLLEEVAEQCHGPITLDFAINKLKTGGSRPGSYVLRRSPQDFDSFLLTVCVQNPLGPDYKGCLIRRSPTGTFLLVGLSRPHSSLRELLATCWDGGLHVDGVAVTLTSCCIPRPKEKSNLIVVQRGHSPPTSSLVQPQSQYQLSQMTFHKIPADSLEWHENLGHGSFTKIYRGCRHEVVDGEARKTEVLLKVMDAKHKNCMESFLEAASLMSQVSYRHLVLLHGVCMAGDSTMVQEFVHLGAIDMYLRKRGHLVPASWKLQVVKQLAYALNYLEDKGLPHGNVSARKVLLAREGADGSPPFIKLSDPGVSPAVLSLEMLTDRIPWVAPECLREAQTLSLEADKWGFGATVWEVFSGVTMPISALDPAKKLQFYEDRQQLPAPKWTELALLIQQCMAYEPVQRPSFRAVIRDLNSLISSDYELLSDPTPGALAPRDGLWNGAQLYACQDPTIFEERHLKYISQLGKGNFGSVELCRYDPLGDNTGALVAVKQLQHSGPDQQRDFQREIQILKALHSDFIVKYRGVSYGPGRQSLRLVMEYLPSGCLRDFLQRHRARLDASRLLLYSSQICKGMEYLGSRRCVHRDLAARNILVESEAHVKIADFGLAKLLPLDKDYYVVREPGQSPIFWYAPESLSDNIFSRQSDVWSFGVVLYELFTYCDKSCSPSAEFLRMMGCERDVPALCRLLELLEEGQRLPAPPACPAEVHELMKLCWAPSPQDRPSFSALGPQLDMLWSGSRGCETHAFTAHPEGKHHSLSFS
The conditions noted are these: read-out: percentage of control activity (POC), JAK3. The gist of the method:
as §1

The target of assay [3] is T3, EGFR (Homo sapiens, UniProt P00533).
T3 construct: purchased Eurofins Pharma Discovery Services (KinaseProfiler; Cerep BioPrint panel)
The conditions noted are these: read-out: percentage of control activity (POC), EGFR. The gist of the method: as §1

The target of assay [4] is T4, SAPK4 (Homo sapiens, UniProt O15264).
T4 construct: purchased Eurofins Pharma Discovery Services (KinaseProfiler; Cerep BioPrint panel)
T4 sequence (O15264 1-365): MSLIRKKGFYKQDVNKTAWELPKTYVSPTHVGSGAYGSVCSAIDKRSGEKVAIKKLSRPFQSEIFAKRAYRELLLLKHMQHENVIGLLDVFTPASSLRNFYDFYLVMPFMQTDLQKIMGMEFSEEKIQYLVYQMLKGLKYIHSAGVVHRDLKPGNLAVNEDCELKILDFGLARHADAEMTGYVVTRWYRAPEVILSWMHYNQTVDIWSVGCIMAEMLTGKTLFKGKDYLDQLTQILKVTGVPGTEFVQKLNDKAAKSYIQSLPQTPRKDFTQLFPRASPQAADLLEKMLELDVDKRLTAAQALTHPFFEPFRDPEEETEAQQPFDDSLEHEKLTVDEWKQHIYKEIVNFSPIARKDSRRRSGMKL
The conditions noted are these: read-out: percentage of control activity (POC), SAPK4. The gist of the method: as §1

Assay [5] addresses T5, CaMKIIδ (Homo sapiens, UniProt Q13557).
T5 construct: purchased Eurofins Pharma Discovery Services (KinaseProfiler; Cerep BioPrint panel)
To be noted: read-out: percentage of control activity (POC), CaMKIIδ. The gist of the method:
as §1

T3 sequence (P00533 25-1210): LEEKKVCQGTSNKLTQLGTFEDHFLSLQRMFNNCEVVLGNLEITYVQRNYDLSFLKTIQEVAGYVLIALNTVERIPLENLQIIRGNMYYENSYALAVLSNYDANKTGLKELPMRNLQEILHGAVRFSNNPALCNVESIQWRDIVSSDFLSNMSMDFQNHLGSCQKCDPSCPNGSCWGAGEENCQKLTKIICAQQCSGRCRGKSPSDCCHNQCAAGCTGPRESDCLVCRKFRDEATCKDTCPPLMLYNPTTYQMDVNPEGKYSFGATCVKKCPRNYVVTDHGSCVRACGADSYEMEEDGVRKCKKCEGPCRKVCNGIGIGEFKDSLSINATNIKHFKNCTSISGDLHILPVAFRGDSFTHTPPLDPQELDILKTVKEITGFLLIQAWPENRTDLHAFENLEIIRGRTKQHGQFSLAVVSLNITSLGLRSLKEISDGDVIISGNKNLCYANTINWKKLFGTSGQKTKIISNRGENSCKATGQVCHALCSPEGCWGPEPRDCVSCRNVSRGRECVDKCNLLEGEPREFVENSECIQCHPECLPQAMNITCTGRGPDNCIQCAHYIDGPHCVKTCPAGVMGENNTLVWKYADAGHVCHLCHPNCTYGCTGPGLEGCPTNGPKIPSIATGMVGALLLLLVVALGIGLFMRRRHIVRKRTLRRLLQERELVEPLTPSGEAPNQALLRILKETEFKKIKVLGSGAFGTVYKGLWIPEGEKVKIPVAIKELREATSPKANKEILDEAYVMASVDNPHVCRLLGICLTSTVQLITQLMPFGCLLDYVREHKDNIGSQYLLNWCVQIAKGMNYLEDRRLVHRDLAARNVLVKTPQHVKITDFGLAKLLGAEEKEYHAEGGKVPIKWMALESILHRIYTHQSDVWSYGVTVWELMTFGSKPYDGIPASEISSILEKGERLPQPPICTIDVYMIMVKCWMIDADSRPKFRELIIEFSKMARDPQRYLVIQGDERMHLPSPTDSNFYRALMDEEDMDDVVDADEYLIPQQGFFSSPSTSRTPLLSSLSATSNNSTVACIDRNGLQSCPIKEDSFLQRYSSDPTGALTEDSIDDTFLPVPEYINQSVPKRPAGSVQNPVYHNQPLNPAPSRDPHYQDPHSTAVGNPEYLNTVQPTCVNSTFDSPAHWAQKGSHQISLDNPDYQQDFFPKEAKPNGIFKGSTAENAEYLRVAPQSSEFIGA
T5 sequence (Q13557 whole entry): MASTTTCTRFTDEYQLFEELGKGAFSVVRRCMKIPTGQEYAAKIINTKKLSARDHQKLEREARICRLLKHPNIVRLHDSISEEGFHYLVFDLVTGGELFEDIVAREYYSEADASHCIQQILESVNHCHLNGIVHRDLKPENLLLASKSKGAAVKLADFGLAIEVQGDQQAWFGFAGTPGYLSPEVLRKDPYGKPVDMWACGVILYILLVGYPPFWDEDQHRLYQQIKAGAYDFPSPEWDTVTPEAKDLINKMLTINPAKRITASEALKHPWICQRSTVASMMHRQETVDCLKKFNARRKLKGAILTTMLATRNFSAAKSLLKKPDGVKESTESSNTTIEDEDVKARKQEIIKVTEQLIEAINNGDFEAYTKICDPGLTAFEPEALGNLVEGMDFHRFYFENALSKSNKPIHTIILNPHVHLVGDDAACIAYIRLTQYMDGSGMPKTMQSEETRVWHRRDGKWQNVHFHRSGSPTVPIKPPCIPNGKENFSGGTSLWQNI

In the case of `CC(C)(C)N1CCC(c2cc(-c3ccc(F)cc3Cl)c3cc[n+]([O-])c(-c4c(Cl)cccc4Cl)c3n2)CC1` [compound 2], the remaining activity at 10 µM in assay [1] amounted to 108%; in assay [2], 102%; in assay [3], 96%; in assay [4], 96%; in assay [5] it was 100%.

Regarding `Cc1ccc(C(=O)NCC2CC2)cc1-c1ccc2c(c1)NC(=O)C21CCCC1` [compound 3], the remaining activity at 10 µM in assay [1] came to 102%; in assay [2], 100%; in assay [3] it was 91%; in assay [4] it was 94%; in assay [5], 103%.

For `Cn1cc(-c2cccc(-c3nc(C(=O)NC4C5CC6CC4CC(O)(C6)C5)c(N)nc3N)c2)cn1` (stereo not shown) [compound 4], the remaining activity at 10 µM in assay [1] worked out at 97%; in assay [2], 89%; in assay [3], 95%; in assay [4], 88%; in assay [5] it was 93%.

As to `CS(=O)(=O)N1CCN(c2ccc(Nc3ncc(C(N)=O)c(NC4CC4)n3)cc2)CC1` [compound 5], the remaining activity at 10 µM is 66% in assay [1]; -2% in assay [2]; 87% in assay [3]; 32% in assay [4]; 27% in assay [5].

As for `COc1c(NC(=O)c2ccc(C)c(-c3nnc4c(NCC(C)(C)C)nccn34)c2)cc(C(C)(C)C)cc1NS(C)(=O)=O` [compound 7, reference compound], the remaining activity at 10 µM in assay [1] worked out at 105%; in assay [2], 99%; in assay [3], 104%; in assay [4] it was 81%; in assay [5] it was 96%.
